Source: US10457707B2, “Substituted urea depsipeptide analogs as activators of the CLPP endopeptidase” (priority 2015, dated 2019)
Converted amounts (≈) assume the structure as drawn. Like-named read-outs stand apart in the source and are kept apart here. *1 amine or outer side, *2 acyl side, *3 side chain or, on linkers, in order; H or OH if unused. Where a SMILES comes first, the peptide text is derived from it. Bridges are numbered along the chain shown (N, C = ends). [ ]: non-standard residue; d: D form. The star is where a group is joined. ξ: configuration not given here. Phe(3,5-F2) = N[C@@H](Cc1cc(F)cc(F)c1)C(=O)O; Morpholine(3S-CO) = O=C(O)[C@@H]1COCCN1; Pro(4R-Me) = C[C@H]1CN[C@H](C(=O)O)C1; NH(3,4-Me2-phenyl) = Cc1ccc(N*)cc1C; NMeaThr = CN[C@H](C(=O)O)[C@H](C)O; Hyp = O=C(O)[C@@H]1C[C@@H](O)CN1; NH(4-Et-phenyl) = CCc1ccc(N*)cc1; Heptenoyl(2E) = CCCC/C=C/C(=O)*; NH(4-Me-phenyl) = Cc1ccc(N*)cc1; ξNMeThr = CNC(C(=O)O)[C@@H](C)O; aThr = C[C@H](O)[C@H](N)C(=O)O; Pip = O=C(O)[C@@H]1CCCCN1; X4 = c1cc2c(cc1N*)CCC2; X8 = c1cc2c(cc1N*)CCO2; X6 = Cc1cc(C)cc(N*)c1; CO = O=C([*:1])[*:2]; X7 = CC/C=C/C(=O)*

How the values were obtained:
Assay type in all cases: cell-based
[1] = Cytotoxicity assay (CellTiter-Glo cell viability, 72 hours); conditions: African green monkey
Summary of the method: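 Vero cells, 5000/well, grown overnight at 37° C, 5% CO2 in DMEM with 10% FBS, then exposed to serial compound dilutions or DMSO for 72 hours. Viability read by CellTiter-Glo luminescence. IC50 from duplicate wells, reported as range over two independent experiments.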

[2] = system: Staphylococcus aureus, ATCC 29213; assay: Minimal inhibitory concentration assay (microbroth dilution); conditions: ATCC29213, read-out: Minimal Inhibitory Concentrations S. aureus ATCC 29213
Summary of the method: (§1)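 CLSI broth microdilution; 2-fold series from 200 μM final; inoculum ~10^5 cfu/mL; 37 °C, aerobic, overnight; visual MIC = lowest conc. without growth. The ClpP-inactivated USA 300 strain is the comparator for ClpP-dependent killing.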

[3] = system: Staphylococcus aureus, NRS70; assay: as above
Summary of the method: as §1

[4] = system: Bacillus subtilis, ATCC 23857; assay: as above
Summary of the method: as §1

[5] = system: Streptococcus pyogenes, ATCC 700294; assay: as above
Summary of the method: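 CLSI broth microdilution: two-fold serial compound dilutions in appropriate broth, inoculated and incubated aerobically overnight at 37° C. MIC read visually as lowest concentration preventing bacterial growth.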

[6] = Vero cells, 72 hours, growth inhibition, read-out: Cytotoxicity IC50
[7] = Staphylococcus aureus, NRS70, read-out: Minimal Inhibitory Concentrations S. aureus NRS70
[8] = Bacillus subtilis, ATCC23857, read-out: Minimal Inhibitory Concentrations B. subtilis ATCC 23857
[9] = Streptococcus pyogenes, ATCC700294, read-out: Minimal Inhibitory Concentrations S. pyogenes ATCC 700294
[10] = Staphylococcus aureus, NRS70; read-out: Minimal Inhibitory Concentrations S. aureus NRS70

SMILES	IC50 at 72 h [1, 6] [µM]	MIC [2] [µM]	MIC [3, 7] [µM]	MIC [4, 8] [µM]	MIC [5, 9] [µM]	IC50 at 72 h [1] [µM]	MIC [3, 10] [µM]	MIC ([4]; Bacillus subtilis, ATCC23857; read-out: Minimal Inhibitory Concentrations B. subtilis ATCC 23857) [µM]	MIC ([5]; Streptococcus pyogenes, ATCC700294; read-out: Minimal Inhibitory Concentrations S. pyogenes ATCC 700294) [µM]
CCCC/C=C/C(=O)N[C@@H](Cc1cc(F)cc(F)c1)C(=O)N[C@@H]1C(=O)N2C[C@H](O)C[C@H]2C(=O)N2CCCC[C@H]2C(=O)N[C@@H](C)C(=O)N2C[C@H](C)C[C@H]2C(=O)O[C@H]1C [Compound 301, (E)-N—((S)-3-(3,5-difluorophenyl)-1-(((2R,6S,8aS,14aS,16R,20S,21S,23aS)-16-hydroxy-2,6,21-trimethyl-5,8,14,19,23-pentaoxooctadecahydro-1H,5H,14H,19H-pyrido[2,1-i]dipyrrolo[2,1-c:2′,1′-l][1]oxa[4,7,10,13]tetraazacyclohexadecin-20-yl)amino)-1-oxopropan-2-yl)hept-2-enamide] ({Heptenoyl(2E)}-[Phe(3,5-F2)][aThr][Hyp][Pip]A[Pro(4R-Me)]; ester 2-C)	61.1 ± 1.7	0.079 (≈ 0.0633 µg/mL)	0.079 (≈ 0.0633 µg/mL)						
C[C@@H]1C[C@H]2C(=O)O[C@@H](C)[C@H](NC(=O)[C@H](Cc3cc(F)cc(F)c3)NC(=O)Nc3ccc4c(c3)CCO4)C(=O)N3CCC[C@H]3C(=O)N3CCCC[C@H]3C(=O)N[C@@H](C)C(=O)N2C1 [Compound 305, (S)-3-(3,5-difluorophenyl)-2-(3-(2,3-dihydrobenzofuran-5-yl)ureido)-N-((2R,6S,8aS,14aS,20S,21S,23aS)-2,6,21-trimethyl-5,8,14,19,23-pentaoxooctadecahydro-1H,5H,14H,19H-pyrido[2,1-i]dipyrrolo[2,1-c:2′,1′-l][1]oxa[4,7,10,13]tetraazacyclo-hexadecin-20-yl)propanamide] ({X8-CO}-[Phe(3,5-F2)][aThr]P[Pip]A[Pro(4R-Me)]; ester 2-C)	39 ± 2.7	0.24 (≈ 0.201 µg/mL)	0.24 (≈ 0.201 µg/mL)						
Cc1ccc(NC(=O)N[C@@H](Cc2cc(F)cc(F)c2)C(=O)N[C@@H]2C(=O)N3C[C@H](O)C[C@H]3C(=O)N3CCOC[C@H]3C(=O)N[C@@H](C)C(=O)N3C[C@H](C)C[C@H]3C(=O)O[C@H]2C)cc1C [Compound 215, (S)-3-(3,5-difluorophenyl)-2-(3-(3,4-dimethylphenyl)ureido)-N-((6aS,8R,12S,13S,15aS,17R,21S,23aS)-8-hydroxy-13,17,21-trimethyl-6,11,15,20,23-pentaoxooctadecahydro-6H,11H,15H-[1,4]oxazino[3,4-i]dipyrrolo[2,1-c:2′,1′-l][1]oxa[4,7,10,13]tetraazacyclohexadecin-12-yl)propanamide] ({NH(3,4-Me2-phenyl)-CO}-[Phe(3,5-F2)][aThr][Hyp][Morpholine(3S-CO)]A[Pro(4R-Me)]; ester 2-C)		0.4 (≈ 0.336 µg/mL)	0.8 (≈ 0.672 µg/mL)	3.1 (≈ 2.6 µg/mL)	< 0.2				
Cc1ccc(NC(=O)N[C@@H](Cc2cc(F)cc(F)c2)C(=O)N[C@H]2COC(=O)[C@@H]3C[C@@H](C)CN3C(=O)[C@H](C)NC(=O)C([C@@H](C)O)N(C)C(=O)[C@@H]3CCCN3C2=O)cc1 (stereo partly drawn) [Compound 322, (S)-3-(3,5-difluorophenyl)-N-((2R,6S,9R,11aS,17S,20aS)-9-((R)-1-hydroxyethyl)-2,6,10-trimethyl-5,8,11,16,20-pentaoxohexadecahydro-1H,5H,16H-dipyrrolo[2,1-c:2′,1′-l][1]oxa[4,7,10,13]tetraazacyclohexadecin-17-yl)-2-(3-(p-tolyl)ureido)propanamide] ({NH(4-Me-phenyl)-CO}-[Phe(3,5-F2)]SP[ξNMeThr]A[Pro(4R-Me)]; ester 2-C)	47.8 ± 3.2		0.313 (≈ 0.25 µg/mL)	0.078 (≈ 0.0622 µg/mL)	0.625 (≈ 0.499 µg/mL)				
Cc1cc(C)cc(NC(=O)N[C@@H](Cc2cc(F)cc(F)c2)C(=O)N[C@@H]2C(=O)N3CCC[C@H]3C(=O)N3CCCC[C@H]3C(=O)N[C@@H](C)C(=O)N3C[C@H](C)C[C@H]3C(=O)O[C@H]2C)c1 [Compound 304, (S)-3-(3,5-difluorophenyl)-2-(3-(3,5-dimethylphenyl)ureido)-N-((2R,6S,8aS,14aS,20S,21S,23aS)-2,6,21-trimethyl-5,8,14,19,23-pentaoxooctadecahydro-1H,5H,14H,19H-pyrido[2,1-i]dipyrrolo[2,1-c:2′,1′-l][1]oxa[4,7,10,13]tetraazacyclo-hexadecin-20-yl)propanamide] ({X6-CO}-[Phe(3,5-F2)][aThr]P[Pip]A[Pro(4R-Me)]; ester 2-C)		0.079 (≈ 0.0649 µg/mL)				21.3 ± 1.6	0.059 (≈ 0.0485 µg/mL)		
Cc1ccc(NC(=O)N[C@@H](Cc2cc(F)cc(F)c2)C(=O)N[C@@H]2C(=O)N3C[C@H](O)C[C@H]3C(=O)N3CCCC[C@H]3C(=O)N[C@@H](C)C(=O)N3C[C@H](C)C[C@H]3C(=O)O[C@H]2C)cc1C [Compound 212, (S)-3-(3,5-difluorophenyl)-2-(3-(3,4-dimethylphenyl)ureido)-N-((2R,6S,8aS,14aS,16R,20S,21S,23aS)-16-hydroxy-2,6,21-trimethyl-5,8,14,19,23-pentaoxooctadecahydro-1H,5H,14H,19H-pyrido[2,1-i]dipyrrolo[2,1-c:2′,1′-l][1]oxa[4,7,10,13]tetraazacyclohexadecin-20-yl)propanamide] ({NH(3,4-Me2-phenyl)-CO}-[Phe(3,5-F2)][aThr][Hyp][Pip]A[Pro(4R-Me)]; ester 2-C)		0.005 (≈ 0.00419 µg/mL)	0.002 (≈ 0.00168 µg/mL)	< 0.2	< 0.2				
CCc1ccc(NC(=O)N[C@@H](Cc2cc(F)cc(F)c2)C(=O)N[C@@H]2C(=O)N3C[C@H](O)C[C@H]3C(=O)N3CCCC[C@H]3C(=O)N[C@@H](C)C(=O)N3C[C@H](C)C[C@H]3C(=O)O[C@H]2C)cc1 [Compound 211, (S)-3-(3,5-difluorophenyl)-2-(3-(4-ethylphenyl)ureido)-N-((2R,6S,8aS,14aS,16R,20S,21S,23aS)-16-hydroxy-2,6,21-trimethyl-5,8,14,19,23-pentaoxooctadecahydro-1H,5H,14H,19H-pyrido[2,1-i]dipyrrolo[2,1-c:2′,1′-l][1]oxa[4,7,10,13]tetraazacyclohexadecin-20-yl)propanamide] ({NH(4-Et-phenyl)-CO}-[Phe(3,5-F2)][aThr][Hyp][Pip]A[Pro(4R-Me)]; ester 2-C)		0.04 (≈ 0.0335 µg/mL)					0.02 (≈ 0.0168 µg/mL)	0.8 (≈ 0.67 µg/mL)	< 0.2
Cc1ccc(NC(=O)N[C@@H](Cc2cc(F)cc(F)c2)C(=O)N[C@@H]2C(=O)N3CCC[C@H]3C(=O)N3CCCC[C@H]3C(=O)N[C@@H](C)C(=O)N3C[C@H](C)C[C@H]3C(=O)O[C@H]2C)cc1 [Compound 209, (S)-3-(3,5-difluorophenyl)-2-(3-(p-tolyl)ureido)-N-((2R,6S,8aS,14aS,20S,21S,23aS)-2,6,21-trimethyl-5,8,14,19,23-pentaoxooctadecahydro-1H,5H,14H,19H-pyrido[2,1-i]dipyrrolo[2,1-c:2′,1′-l][1]oxa[4,7,10,13]tetraazacyclohexadecin-20-yl)propanamide] ({NH(4-Me-phenyl)-CO}-[Phe(3,5-F2)][aThr]P[Pip]A[Pro(4R-Me)]; ester 2-C)	40 ± 4.1	0.05 (≈ 0.0404 µg/mL)		0.05 (≈ 0.0404 µg/mL)	0.2 (≈ 0.162 µg/mL)				
C[C@@H]1C[C@H]2C(=O)O[C@@H](C)[C@H](NC(=O)[C@H](Cc3cc(F)cc(F)c3)NC(=O)Nc3ccc4c(c3)CCC4)C(=O)N3CCC[C@H]3C(=O)N3CCCC[C@H]3C(=O)N[C@@H](C)C(=O)N2C1 [Compound 302, (S)-3-(3,5-difluorophenyl)-2-(3-(2,3-dihydro-1H-INDEN-5-yl)ureido)-N-((2R,6S,8aS,14aS,20S,21S,23aS)-2,6,21-trimethyl-5,8,14,19,23-pentaoxooctadecahydro-1H,5H,14H,19H-pyrido[2,1-i]dipyrrolo[2,1-c:2′,1′-l][1]oxa[4,7,10,13]tetraazacyclohexadecin-20-yl)propanamide] ({X4-CO}-[Phe(3,5-F2)][aThr]P[Pip]A[Pro(4R-Me)]; ester 2-C)	13.2 ± 1.1	0.059 (≈ 0.0492 µg/mL)	0.039 (≈ 0.0325 µg/mL)						
Cc1ccc(NC(=O)N[C@@H](Cc2cc(F)cc(F)c2)C(=O)N[C@@H]2C(=O)N3CCC[C@H]3C(=O)N(C)[C@@H]([C@H](C)O)C(=O)N[C@@H](C)C(=O)N3C[C@H](C)C[C@H]3C(=O)O[C@H]2C)cc1 [Compound 208, (S)-3-(3,5-difluorophenyl)-N-((2R,6S,9S,11aS,17S,18S,20aS)-9-((S)-1-hydroxyethyl)-2,6,10,18-tetramethyl-5,8,11,16,20-pentaoxohexadecahydro-1H,5H,16H-dipyrrolo[2,1-c:2′,1′-l][1]oxa[4,7,10,13]tetraazacyclohexadecin-17-yl)-2-(3-(p-tolyl)ureido)propanamide] ({NH(4-Me-phenyl)-CO}-[Phe(3,5-F2)][aThr]P[NMeaThr]A[Pro(4R-Me)]; ester 2-C)	46.1 ± 5.5	0.05 (≈ 0.0406 µg/mL)		0.05 (≈ 0.0406 µg/mL)	0.1 (≈ 0.0812 µg/mL)				
CC/C=C/C(=O)N[C@@H](Cc1cc(F)cc(F)c1)C(=O)N[C@@H]1C(=O)N2C[C@H](O)C[C@H]2C(=O)N2CCCC[C@H]2C(=O)N[C@@H](C)C(=O)N2C[C@H](C)C[C@H]2C(=O)O[C@H]1C [Compound 300] (X7-[Phe(3,5-F2)][aThr][Hyp][Pip]A[Pro(4R-Me)]; ester 2-C)	> 100	1.9 (≈ 1.47 µg/mL)	2.5 (≈ 1.93 µg/mL)						
